From patent US20010003121A1, “Novel compounds” (AstraZeneca UK Limited, priority 1997, published 2001) come the findings set out here.

The melting point is the temperature, or range, at which the solid turns liquid. The compound `O=C(NCC12CC3CC(CC(C3)C1)C2)c1cc(O)ccc1Cl` [Example 51, 2-Chloro-5-hydroxy-N-(tricyclo[3.3.1.1^3,7]dec-1-ylmethyl)-benzamide] returned a melting point of 263 to 264 °C. `O=C(NCC12CC3CC(CC(C3)C1)C2)c1cc(F)ccc1Cl` [Example 43, 2-Chloro-5-fluoro-N-(tricyclo[3.3.1.1^3,7]dec-1-ylmethyl)-benzamide] yielded a melting point of 176 to 177 °C. The value for `O=C(NCC12CC3CC(CC(C3)C1)C2)c1cccc(NCCNCCc2c[nH]cn2)c1Cl` [Example 77, 2-Chloro-3-(N-(2-[imidazoyl-4-yl]ethyl)-2-aminoethyl)amino-N-(tricyclo[3.3.1.1^3,7]dec-1-ylmethyl)-benzamide] was 86 to 87 °C. For the compound `CN(C)CCNc1cccc(C(=O)NCC23CC4CC(CC(C4)C2)C3)c1Cl` [Example 56, 2-Chloro-3-(N,N-dimethylamino)ethylamino-N-(tricyclo[3.3.1.1^3,7]dec-1-ylmethyl)-benzamide], the melting point is 221 °C. The value for `O=C(NCC12CC3CC(CC(C3)C1)C2)c1cc(N2CC2)ccc1Cl` was 154 to 155 °C. The value for `O=C(NCC12CC3CC(CC(C3)C1)C2)c1cc([N+](=O)[O-])ccc1Cl` [Example 53, 2-Chloro-5-nitro-N-(tricyclo[3.3.1.1^3,7]dec-1-ylmethyl)-benzamide] was 178 °C; that for `O=C(O)CCCOc1ccccc1C(=O)NCC12CC3CC(CC(C3)C1)C2` [Example 50, 2-[[(Tricyclo[3.3.1.1^3,7]dec-1-ylmethyl)amino]carbonyl]phenyl-1-oxybutyric acid] was 109 to 113 °C; that for `COc1cc(OC)c(C)c(C(=O)NCC23CC4CC(CC(C4)C2)C3)c1` [Example 67, 3,5-Dimethoxy-2-methyl-N-(tricyclo[3.3.1.1^3,7]dec-1-ylmethyl)-benzamide] was 173 to 175 °C.
